Results on one molecule are retold here after PMC5218480 (PLoS ONE, 2017).

This assay relates to MV-4-11 cells. As to the kind of experiment: Gene expression microarray analysis (Affymetrix PrimeView) and GSEA. Further details: RFU PODN (11730768_x_at) / Fold change /veh PODN (11730768_x_at) / RFU LINC00158 (11744669_a_at) / Fold change /veh LINC00158 (11744669_a_at) / RFU DUSP10 (11751237_a_at) / Fold change /veh DUSP10 (11751237_a_at) / RFU ID3 (11757404_x_at) / Fold change /veh ID3 (11757404_x_at) / RFU PLEKHG5 (11737974_s_at) / Fold change /veh PLEKHG5 (11737974_s_at) / RFU LRRC4B (11730491_at) / Fold change /veh LRRC4B (11730491_at) / RFU GIMAP4 (11747438_a_at) / Fold change /veh GIMAP4 (11747438_a_at) / RFU KRT8 (11758183_x_at) / Fold change /veh KRT8 (11758183_x_at) / RFU CNN1 (11734310_a_at) / Fold change /veh CNN1 (11734310_a_at) / RFU VPS37D (11726825_at) / Fold change /veh VPS37D (11726825_at) / RFU C10orf10 (11716522_x_at) / Fold change /veh C10orf10 (11716522_x_at) / RFU KIR2DL2 /// KIR2DL4 /// KIR2DL5A /// KIR2DL5B /// KIR2DS1 /// KIR2DS2 /// KIR2DS3 /// KIR2DS4 /// KIR3DL3 /// KIR3DL3 /// KIR3DS1 (11738374_at) / Fold change /veh KIR2DL2 /// KIR2DL4 /// KIR2DL5A /// KIR2DL5B /// KIR2DS1 /// KIR2DS2 /// KIR2DS3 /// KIR2DS4 /// KIR3DL3 /// KIR3DL3 /// KIR3DS1 (11738374_at) / RFU C1QL1 (11718748_at) / Fold change /veh C1QL1 (11718748_at) / RFU TMPRSS4 (11747572_a_at) / Fold change /veh TMPRSS4 (11747572_a_at) / RFU HAMP (11756126_x_at) / Fold change /veh HAMP (11756126_x_at) / RFU RNFT2 (11725882_a_at) / Fold change /veh RNFT2 (11725882_a_at) / RFU NR4A2 (11747474_a_at) / Fold change /veh NR4A2 (11747474_a_at) / RFU ABCC12 (11746883_a_at) / Fold change /veh ABCC12 (11746883_a_at) / RFU TMEM136 (11760407_x_at) / Fold change /veh TMEM136 (11760407_x_at) / RFU CLDN22 /// WWC2 (11732394_at) / Fold change /veh CLDN22 /// WWC2 (11732394_at) / RFU HLA-DPB1 (11760878_x_at) / Fold change /veh HLA-DPB1 (11760878_x_at) / RFU SPINT1 (11716480_a_at) / Fold change /veh SPINT1 (11716480_a_at) / RFU GAP43 (11754022_s_at) / Fold change /veh GAP43 (11754022_s_at) / RFU A4GNT (11735810_at) / Fold change /veh A4GNT (11735810_at) / RFU PRB3 (11715151_x_at) / Fold change /veh PRB3 (11715151_x_at) / RFU TUBB4B (11761932_at) / Fold change /veh TUBB4B (11761932_at) / RFU CAPN14 (11732068_a_at) / Fold change /veh CAPN14 (11732068_a_at) / RFU TMCC2 (11721928_a_at) / Fold change /veh TMCC2 (11721928_a_at) / RFU IRGQ (11745062_a_at) / Fold change /veh IRGQ (11745062_a_at) / RFU FAM174B (11720279_a_at) / Fold change /veh FAM174B (11720279_a_at) / RFU TMPRSS4 (11748680_a_at) / Fold change /veh TMPRSS4 (11748680_a_at) / RFU FAM212B (11763350_a_at) / Fold change /veh FAM212B (11763350_a_at) / RFU PLEKHG5 (11743358_a_at) / Fold change /veh PLEKHG5 (11743358_a_at) / RFU ZSCAN30 (11745921_a_at) / Fold change /veh ZSCAN30 (11745921_a_at) / RFU CMKLR1 (11741424_a_at) / Fold change /veh CMKLR1 (11741424_a_at) / RFU LOC101060620 /// MAPK8IP1 (11723275_at) / Fold change /veh LOC101060620 /// MAPK8IP1 (11723275_at) / RFU SPTSSB (11747773_x_at) / Fold change /veh SPTSSB (11747773_x_at) / RFU PRSS12 (11739890_at) / Fold change /veh PRSS12 (11739890_at) / RFU BIN1 (11741810_x_at) / Fold change /veh BIN1 (11741810_x_at) / RFU WNT11 (11732464_a_at) / Fold change /veh WNT11 (11732464_a_at) / RFU C10orf10 (11716521_a_at) / Fold change /veh C10orf10 (11716521_a_at) / RFU C5orf56 (11738089_at) / Fold change /veh C5orf56 (11738089_at) / RFU CYB561 (11721691_x_at) / Fold change /veh CYB561 (11721691_x_at) / RFU ANKRD19P (11752326_a_at) / Fold change /veh ANKRD19P (11752326_a_at) / RFU OR2T12 /// OR2T33 /// OR2T8 (11738714_s_at) / Fold change /veh OR2T12 /// OR2T33 /// OR2T8 (11738714_s_at) / RFU VCAN (11748164_a_at) / Fold change /veh VCAN (11748164_a_at) / RFU JSRP1 (11732532_at) / Fold change /veh JSRP1 (11732532_at) / RFU KRTAP10-11 (11738290_x_at) / Fold change /veh KRTAP10-11 (11738290_x_at) / RFU MYO3A (11730013_a_at) / Fold change /veh MYO3A (11730013_a_at) / RFU EBF3 (11725865_a_at) / Fold change /veh EBF3 (11725865_a_at) / RFU CAMK2N1 (11719241_x_at) / Fold change /veh CAMK2N1 (11719241_x_at) / RFU C5orf56 (11738088_a_at) / Fold change /veh C5orf56 (11738088_a_at) / RFU OLFML3 (11715873_a_at) / Fold change /veh OLFML3 (11715873_a_at) / RFU LOC100653217 /// NTM (11731650_a_at) / Fold change /veh LOC100653217 /// NTM (11731650_a_at) / RFU MAPK11 (11762145_a_at) / Fold change /veh MAPK11 (11762145_a_at) / RFU FIZ1 (11724087_x_at) / Fold change /veh FIZ1 (11724087_x_at) / RFU OASL (11726364_x_at) / Fold change /veh OASL (11726364_x_at) / RFU SOX15 (11748057_x_at) / Fold change /veh SOX15 (11748057_x_at) / RFU CD79A (11719716_a_at) / Fold change /veh CD79A (11719716_a_at) / RFU HIST1H1D (11736915_at) / Fold change /veh HIST1H1D (11736915_at) / RFU CASKIN2 (11723855_a_at) / Fold change /veh CASKIN2 (11723855_a_at) / RFU LOC730098 (11760151_x_at) / Fold change /veh LOC730098 (11760151_x_at) / RFU OR4N2 (11742367_at) / Fold change /veh OR4N2 (11742367_at) / RFU PRRT2 (11749266_a_at) / Fold change /veh PRRT2 (11749266_a_at) / RFU SNX32 (11753110_a_at) / Fold change /veh SNX32 (11753110_a_at) / RFU CDHR5 (11726645_a_at) / Fold change /veh CDHR5 (11726645_a_at) / RFU RCAN1 (11760418_a_at) / Fold change /veh RCAN1 (11760418_a_at) / RFU FAM167A (11723789_a_at) / Fold change /veh FAM167A (11723789_a_at) / RFU FAM26E (11764081_at) / Fold change /veh FAM26E (11764081_at) / RFU ISYNA1 (11749810_s_at) / Fold change /veh ISYNA1 (11749810_s_at) / RFU ACY1 (11761880_at) / Fold change /veh ACY1 (11761880_at) / RFU 11764098_at / Fold change /veh 11764098_at / RFU SAMD14 (11745864_x_at) / Fold change /veh SAMD14 (11745864_x_at) / RFU NPB (11741838_a_at) / Fold change /veh NPB (11741838_a_at) / RFU TMPRSS6 (11731388_a_at) / Fold change /veh TMPRSS6 (11731388_a_at) / RFU KRTAP10-2 (11738614_at) / Fold change /veh KRTAP10-2 (11738614_at) / RFU ARHGAP8 /// PRR5-ARHGAP8 (11727945_x_at) / Fold change /veh ARHGAP8 /// PRR5-ARHGAP8 (11727945_x_at) / RFU KRTAP5-7 /// NADSYN1 (11734609_at) / Fold change /veh KRTAP5-7 /// NADSYN1 (11734609_at) / RFU RASL12 (11751679_a_at) / Fold change /veh RASL12 (11751679_a_at) / RFU CDKN2B (11736163_a_at) / Fold change /veh CDKN2B (11736163_a_at) / RFU PRF1 (11729649_at) / Fold change /veh PRF1 (11729649_at) / RFU, ZNF638 /// ZNF638-IT1 / Fold change vs veh, ZNF638 /// ZNF638-IT1 / RFU, PANK3 / Fold change vs veh, PANK3 / RFU, SH3YL1 / Fold change vs veh, SH3YL1 / RFU, ZEB2 / Fold change vs veh, ZEB2 / RFU, NRIP1 / Fold change vs veh, NRIP1 / RFU, PTTG1IP / Fold change vs veh, PTTG1IP / RFU, CAPN2 / Fold change vs veh, CAPN2 / RFU, MED14 / Fold change vs veh, MED14 / RFU, SNORA58 / Fold change vs veh, SNORA58 / RFU, C1orf63 / Fold change vs veh, C1orf63 / RFU, LRRFIP1 / Fold change vs veh, LRRFIP1 / RFU, NDUFAF7 / Fold change vs veh, NDUFAF7 / RFU, SLC12A2 / Fold change vs veh, SLC12A2 / RFU, IBTK / Fold change vs veh, IBTK / RFU, ESF1 / Fold change vs veh, ESF1 / Fold change vs veh, TMEM50B / RFU, TAOK1 / Fold change vs veh, TAOK1 / RFU, ACBD3 / Fold change vs veh, ACBD3 / RFU, TMA16 / Fold change vs veh, TMA16 / RFU, RWDD3 / Fold change vs veh, RWDD3 / RFU, BCAT1 / Fold change vs veh, BCAT1 / RFU, EDEM3 / Fold change vs veh, EDEM3 / RFU, TMEM33 / Fold change vs veh, TMEM33 / RFU, WDR75 / Fold change vs veh, WDR75 / RFU, AHCTF1 / Fold change vs veh, AHCTF1 / RFU, TFRC / Fold change vs veh, TFRC / RFU, ZDHHC17 / Fold change vs veh, ZDHHC17 / RFU, NOM1 / Fold change vs veh, NOM1 / RFU, ARL8B / Fold change vs veh, ARL8B / RFU, ZBTB11 / Fold change vs veh, ZBTB11 / RFU, TAMM41 / Fold change vs veh, TAMM41 / RFU, KIAA1704 /// LOC100996395 / Fold change vs veh, KIAA1704 /// LOC100996395 / RFU, ING1 / Fold change vs veh, ING1 / RFU, TRMT61B / Fold change vs veh, TRMT61B / RFU, FUBP3 / Fold change vs veh, FUBP3 / RFU, TP53 / Fold change vs veh, TP53 / RFU, TNKS2 / Fold change vs veh, TNKS2 / RFU, ZFP14 / Fold change vs veh, ZFP14 / RFU, ACTR2 / Fold change vs veh, ACTR2 / RFU, PPP3R1 / Fold change vs veh, PPP3R1 / RFU, PIK3R1 / Fold change vs veh, PIK3R1 / RFU, HNRNPA1 / Fold change vs veh, HNRNPA1 / RFU, RNF170 / Fold change vs veh, RNF170 / RFU, ZNF28 / Fold change vs veh, ZNF28 / RFU, RNGTT / Fold change vs veh, RNGTT / RFU, OGT / Fold change vs veh, OGT / RFU, BRD1 / Fold change vs veh, BRD1 / RFU, MARS / Fold change vs veh, MARS / RFU, ZNF655 / Fold change vs veh, ZNF655 / RFU, FAHD1 / Fold change vs veh, FAHD1 / RFU, BDP1 / Fold change vs veh, BDP1 / RFU, LRRCC1 / Fold change vs veh, LRRCC1 / RFU, ARID1A / Fold change vs veh, ARID1A / RFU, ZNF146 / Fold change vs veh, ZNF146 / RFU, ZNF330 / Fold change vs veh, ZNF330 / RFU, GPN3 / Fold change vs veh, GPN3 / RFU, C9orf123 / Fold change vs veh, C9orf123 / RFU, N4BP2L2 / Fold change vs veh, N4BP2L2 / RFU, ARFIP1 / Fold change vs veh, ARFIP1 / RFU, FAM179B / Fold change vs veh, FAM179B / RFU, BCL10 / Fold change vs veh, BCL10 / RFU, UHRF1BP1L / Fold change vs veh, UHRF1BP1L / RFU, BET1 / Fold change vs veh, BET1 / RFU, CNOT2 / Fold change vs veh, CNOT2 / RFU, ZNF268 / Fold change vs veh, ZNF268 / Fold change vs veh, ZNF507 / RFU, DGCR2 / Fold change vs veh, DGCR2 / RFU, WDSUB1 / Fold change vs veh, WDSUB1 / Fold change vs veh, HSP90B1 /// MIR3652 / RFU, ADSS / Fold change vs veh, ADSS / RFU, GK / Fold change vs veh, GK / RFU, ZNF148 / Fold change vs veh, ZNF148 / RFU, TAF9 / Fold change vs veh, TAF9 / RFU, SLC1A5 / Fold change vs veh, SLC1A5 / RFU, SLMO2 / Fold change vs veh, SLMO2 / RFU, ABCC4 / Fold change vs veh, ABCC4 / RFU, LOC101060439 /// RAP1B / Fold change vs veh, LOC101060439 /// RAP1B / RFU, RFX7 / Fold change vs veh, RFX7 / RFU, GTPBP10 / Fold change vs veh, GTPBP10 / RFU, CNEP1R1 / Fold change vs veh, CNEP1R1 / RFU, BIVM-ERCC5 /// ERCC5 / Fold change vs veh, BIVM-ERCC5 /// ERCC5 / RFU, ILF3 / Fold change vs veh, ILF3 / RFU 11762660_at / Fold change /veh 11762660_at / RFU VCAN (11757783_s_at) / Fold change /veh VCAN (11757783_s_at) / RFU DDX43 (11728927_at) / Fold change /veh DDX43 (11728927_at) / RFU KRT8 (11758188_x_at) / Fold change /veh KRT8 (11758188_x_at) / RFU NKD1 (11759106_at) / Fold change /veh NKD1 (11759106_at) / RFU SRD5A1 (11742802_a_at) / Fold change /veh SRD5A1 (11742802_a_at) / RFU TPSAB1 /// TPSB2 (11721975_s_at) / Fold change /veh TPSAB1 /// TPSB2 (11721975_s_at) / RFU GSTM3 (11746129_a_at) / Fold change /veh GSTM3 (11746129_a_at) / RFU IL23R (11737362_x_at) / Fold change /veh IL23R (11737362_x_at) / RFU TMEM51 (11727254_a_at) / Fold change /veh TMEM51 (11727254_a_at) / RFU PIWIL2 (11732686_x_at) / Fold change /veh PIWIL2 (11732686_x_at) / RFU ORM1 (11744905_x_at) / Fold change /veh ORM1 (11744905_x_at) / RFU CCDC152 (11743942_at) / Fold change /veh CCDC152 (11743942_at) / RFU ECM1 (11717891_a_at) / Fold change /veh ECM1 (11717891_a_at) / RFU IL23R (11748794_a_at) / Fold change /veh IL23R (11748794_a_at) / RFU TNFAIP8L3 (11732012_x_at) / Fold change /veh TNFAIP8L3 (11732012_x_at) / RFU MBOAT4 (11741988_at) / Fold change /veh MBOAT4 (11741988_at) / RFU 11764193_at / Fold change /veh 11764193_at / RFU TMEM53 (11763286_at) / Fold change /veh TMEM53 (11763286_at) / RFU MAGEB2 (11727129_at) / Fold change /veh MAGEB2 (11727129_at) / RFU TMEM200A (11744735_a_at) / Fold change /veh TMEM200A (11744735_a_at) / RFU CCDC152 (11751479_a_at) / Fold change /veh CCDC152 (11751479_a_at) / RFU FAM211A (11726209_a_at) / Fold change /veh FAM211A (11726209_a_at) / RFU RGS16 (11746705_a_at) / Fold change /veh RGS16 (11746705_a_at) / RFU VCAN (11755009_s_at) / Fold change /veh VCAN (11755009_s_at) / RFU RHOB (11743442_s_at) / Fold change /veh RHOB (11743442_s_at) / RFU RGS16 (11720943_a_at) / Fold change /veh RGS16 (11720943_a_at) / RFU RGS16 (11720944_at) / Fold change /veh RGS16 (11720944_at) / RFU, VPS4B / Fold change vs veh, VPS4B / RFU, CREB1 / Fold change vs veh, CREB1 / RFU, DNAJC13 / Fold change vs veh, DNAJC13 / RFU, GNAQ / Fold change vs veh, GNAQ / RFU, CDK5R1 / Fold change vs veh, CDK5R1 / RFU, ZRANB3 / Fold change vs veh, ZRANB3 / RFU, CUL4A / Fold change vs veh, CUL4A / RFU, CCNY / Fold change vs veh, CCNY / RFU, UFL1 / Fold change vs veh, UFL1 / RFU, COG3 / Fold change vs veh, COG3 / RFU, DIAPH2 / Fold change vs veh, DIAPH2 / RFU, SKA2 / Fold change vs veh, SKA2 / RFU, AFF3 / Fold change vs veh, AFF3 / RFU, LMF1 / Fold change vs veh, LMF1 / RFU, IPO11 / Fold change vs veh, IPO11 / RFU, DFFB / Fold change vs veh, DFFB / RFU, FOXP1 / Fold change vs veh, FOXP1 / RFU, CARD8 / Fold change vs veh, CARD8 / RFU, STRN3 / Fold change vs veh, STRN3 / RFU, ADK / Fold change vs veh, ADK / RFU, RASSF2 / Fold change vs veh, RASSF2 / RFU, WIPF1 / Fold change vs veh, WIPF1 / RFU, LARP1B / Fold change vs veh, LARP1B / RFU, RASA1 / Fold change vs veh, RASA1 / RFU, RB1 / Fold change vs veh, RB1 / RFU, PPFIA1 / Fold change vs veh, PPFIA1 / RFU, MAT2A / Fold change vs veh, MAT2A / RFU, CCT5 / Fold change vs veh, CCT5 / RFU, WDR92 / Fold change vs veh, WDR92 / RFU, CUX1 / Fold change vs veh, CUX1 / RFU, TTC7A / Fold change vs veh, TTC7A / RFU, TMEM135 / Fold change vs veh, TMEM135 / RFU, DEPTOR / Fold change vs veh, DEPTOR / RFU, CPM / Fold change vs veh, CPM / RFU, DNAJB6 / Fold change vs veh, DNAJB6 / RFU, CACNA2D3 / Fold change vs veh, CACNA2D3 / RFU, DTX4 / Fold change vs veh, DTX4 / RFU, TFCP2 / Fold change vs veh, TFCP2 / RFU, GMCL1 /// GMCL1P1 / Fold change vs veh, GMCL1 /// GMCL1P1 / RFU, AEBP2 / Fold change vs veh, AEBP2 / RFU, SNHG1 /// SNORD22 /// SNORD25 /// SNORD26 /// SNORD27 /// SNORD28 /// SNORD29 /// SNORD31 / Fold change vs veh, SNHG1 /// SNORD22 /// SNORD25 /// SNORD26 /// SNORD27 /// SNORD28 /// SNORD29 /// SNORD31 / Fold change (Aza/veh), C12orf56 (ProbeSet 11735607_a_at) / Fold change (ACY-1035/veh), C12orf56 (ProbeSet 11735607_a_at) / Fold change (Aza/veh), FGFR1OP (ProbeSet 11751329_s_at) / Fold change (ACY-1035/veh), FGFR1OP (ProbeSet 11751329_s_at) / Fold change (Aza/veh), VPS36 (ProbeSet 11739960_a_at) / Fold change (ACY-1035/veh), VPS36 (ProbeSet 11739960_a_at) / RFU SYPL1 (11715823_x_at) / Fold change /veh SYPL1 (11715823_x_at) / RFU IGFBP7 (11715501_s_at) / Fold change /veh IGFBP7 (11715501_s_at) / RFU REEP3 (11722064_at) / Fold change /veh REEP3 (11722064_at) / RFU IGLL1 (11728026_x_at) / Fold change /veh IGLL1 (11728026_x_at): dose or concentration left out as unconfirmed. The format is cell-based, human. The conditions noted are these: ProbeSet 11723475_a_at; LIST B.

For the molecule `Nc1ccc(-c2cccs2)cc1NC(=O)c1ccc2c(c1)cc(C1CC1)n2CCN1CCOCC1` [ACY-1035], the “RFU, TRMT61B” value is recorded as 136.33 RFU.
